Consider 2 compounds from patent US20110034472A1, “Novel Compounds for Treatment of Cancer and Disorders Associated With Angiogenesis Function” (UNIVERSITY OF SOUTHERN CALIFORNIA, priority 2004, published 2011).

The test system of assay [1] is MDA-MB-435 cells. Briefly: MTT assay, continuous drug exposure for 48 hours (Table 3). It counts as cell-based, human. The following applies: Homo sapiens; for CC50: MDA-MB-435; for IC80: MDA-MB-435, read-out: CC80.
The conditions of assay [2]: drugs with known mechanisms of cell cycle regulation; cited from earlier work.
The subject of the next assay is HEY ovarian cancer cells. Put plainly: MTT cytotoxicity assay, HEY. It counts as cell-based, human. The following applies: Homo sapiens; HEY; 72 hours continuous exposure; read-out: IC50 values (mean ± SD). On the procedure: (§1) The sensitivity of a panel of seven human cancer cell lines to SC144 was assessed by MTT-assay. […] The sensitivity towards SC144 was time- and dose-dependent.
(§2) Cytotoxicity was assessed by a 3-(4,5-dimethylthiazol-2-yl)-2,5-diphenyltetrazolium bromide assay as previously described (Carmichael et al. (1987) Cancer Res. 47:936-42). Briefly, cells were seeded in 96-well microtiter plates (PC3 and DU145 at 5,000 cells/well and LNCaP at 10,000 cells/well; breast and ovarian cells at 4,000 cells/well) and allowed to attach. Cells were subsequently treated with a continuous exposure to the corresponding drug for 72 hours. A 3-(4,5-dimethylthiazol-2-yl)-2,5-diphenyltetrazolium bromide solution (at a final concentration of 0.5 mg/mL) was added to each well and cells were incubated for 4 hours at 37° C. After removal of the medium, DMSO was added and the absorbance was read at 570 nm. All assays were done in triplicate. The IC50 was then determined for each drug from a plot of log(drug concentration) versus percentage of cell kill.
(In general: Tetrazolium assays rely on reduction of a dye to a coloured formazan, in cell work by metabolically active cells.)

In assay [3] the test system is LNCaP prostate cancer cells. Briefly: MTT cytotoxicity assay, LNCaP. It counts as cell-based. The following applies: Homo sapiens, 72 hours continuous exposure, read-out: IC50 values (mean ± SD). On the procedure:
as §2
(§3) Cytotoxicity was assessed by a 3-(4,5-dimethylthiazol-2-yl)-2,5-diphenyltetrazolium bromide (MTT) assay as previously described.^9 Briefly, cells were seeded in 96-well microtiter plates and allowed to attach. Cells were subsequently treated with continuous exposure to the corresponding drug for 72 h. An MTT solution (at a final concentration of 0.5 mg/mL) was added to each well, and cells were incubated for 4 h at 37° C. After removal of the medium, DMSO was added and the absorbance was read at 570 nm. All assays were done in triplicate. The IC50 was then determined for each drug from a plot of log (drug concentration) versus percentage of cells killed.

The subject of assay [4] is MDA-MB-468 breast cancer cells. Briefly: MTT cytotoxicity assay, MDA-MB-468. Format: cell-based. The settings on record: Homo sapiens, 72 hours continuous exposure, read-out: IC50 values (mean ± SD). The method, then:
as §1, §2

Assay [5] has as its system PC3 prostate cancer cells. Put plainly: MTT cytotoxicity assay, PC3. Format: cell-based. The settings on record: Homo sapiens; PC3; 72 hours continuous exposure; read-out: IC50 values (mean ± SD). The method, then:
as §1, §2

The subject of assay [6] is DU145 prostate cancer cells. Briefly: MTT cytotoxicity assay, DU145. The following applies: Homo sapiens, DU-145, 72 hours continuous exposure, read-out: IC50 values (mean ± SD). It counts as cell-based. On the procedure:
as §1, §2

A further assay concerns PC3 and DU145 cells. Put plainly: Apoptosis by sub-G0/G1 population (flow cytometry). Format: cell-based, human. The settings on record: IC80 dose for 72 hours. On the procedure: Apoptotic cell population increased with time in PC3 and DU145 treated with SC21 and CPT.
SC21 and CPT-induced apoptosis was measured by flow cytometry (FIG. 18). SC21 at an IC80 dose for 72 hours induced 12% to 15% apoptosis as measured by calculating sub-G0/G1 population. […] An early event in apoptotic cell death is the translocation of the phosphatidyl-serine residues to the outer region of the cell membrane. This event precedes nuclear breakdown, DNA fragmentation, the appearance of most apoptosis-associated molecules, and is readily measured by annexin V binding assay. By this method, we compared SC21 with CPT.
(Flow cytometry measures light scatter and fluorescence of single cells or particles in a stream.)

Assay [7] concerns MDA-MB-435 cells. Briefly: Annexin V/PI apoptosis analysis, SC144 and CPT. It counts as cell-based, human. The following applies: 48 h; IC80. The source says:
Cells were stained with annexin V/PI and analyzed by flow cytometry. Cells in the bottom left quadrant of each panel (Annexin V-negative, PI-negative) are viable, whereas cells in the bottom right quadrant (Annexin V-positive, PI-negative) are in the early stages of apoptosis, and cells in the top right quadrant (Annexin V-positive, PI-positive) are in later stages of apoptosis and necrosis.
An early event in apoptotic cell death is the translocation of the phosphatidyl-serine residues to the outer part of the cell membrane. This event precedes nuclear breakdown, DNA fragmentation, the appearance of most apoptosis-associated molecules, and is readily measured by annexin V binding assay. By this method, SC144 was compared with CPT.

Assay [8] relates to MDA-MB-435 breast cancer cells. Briefly: MTT cytotoxicity assay, MDA-MB-435. It counts as cell-based, human. The settings on record: Homo sapiens, 72 hours continuous exposure, read-out: IC50 values (mean ± SD). The method, then: as §1, §2, §3
In assay [9] the test system is MCF-7 breast cancer cells. Briefly: MTT cytotoxicity assay, MCF-7. Format: cell-based, human. The settings on record: Homo sapiens, MCF7; MCF-7; 72 hours continuous exposure; read-out: IC50 values (mean ± SD). The method, then: as §1, §2
A further assay has as its system DU145 cells. Put plainly: Annexin V/propidium iodide apoptosis assay, DU145. It counts as cell-based, human. The settings on record: 72 hours exposure, IC80. The method, then: FIG. 19 illustrates apoptosis analysis of DU145 cells treated with SC21 or CPT (IC80). Cells were treated with SC21 or CPT for 24, 48, and 72 h, harvested, stained with annexin V/propidium iodide and analyzed by flow cytometry. Untreated control cells (24 and 48 h) were also included in the analysis. Annexin VFITC signals are recorded in FL1-H or […] and propidium iodide in FL2-H or […]. Cells in the bottom left quadrant (annexin V-negative, propidium iodide-negative) are viable, whereas cells in the right quadrant (annexin V-positive, propidium iodide-negative) are in the early stages of apoptosis, and the cells in the top right quadrant (annexin V-positive, propidium iodide-positive) are in later stages of apoptosis and necrosis.
To quantify drug-induced apoptosis, annexin V/propidium iodide staining was done followed by flow cytometry. […] The resulting fluorescence (FLH-1 channel for green fluorescence and FLH-2 channel for red fluorescence) was measured by flow cytometry using a FACScan flow cytometer (Becton Dickinson).
SC21 and CPT-induced apoptosis was measured by flow cytometry (FIG. 18). SC21 at an IC80 dose for 72 hours induced 12% to 15% apoptosis as measured by calculating sub-G0/G1 population. […] This event precedes nuclear breakdown, DNA fragmentation, the appearance of most apoptosis-associated molecules, and is readily measured by annexin V binding assay. […]

Broadly, the CC50 is the concentration at which the toxic effect on the cells reaches its halfway point. Higher therefore signals lower toxicity to the cells. With `O=c1[nH]cc(F)c(=O)[nH]1` [5-Fluorouracil], in the assay on MDA-MB-435 cells [1], the CC50 is 29000 ± 10700 nM and the IC80 is 100000 ± 10 nM. Further, the Cell cycle profile result in assay [2] is “S-phase”.

For orientation: IC50 means the midpoint of a concentration-inhibition curve. As to `CC[C@@]1(O)C(=O)OCc2c1cc1n(c2=O)Cc2cc3ccccc3nc2-1` [CPT, Camptothecin, reference compound], the 50% inhibitory concentration (IC50) came to 35 ± 7 nM in the assay with HEY ovarian cancer cells; 25 ± 6 nM in [3]; 100 ± 2 nM in [4]; 900 ± 210 nM in assay [5]; 25 ± 7 nM in [6]; 27 ± 2 nM in assay [8]. Besides, the half-inhibitory concentration (IC50) in assay [9] came to 30 ± 3 nM. In the assay with MDA-MB-435 cells [1], this compound registered a cytotoxic concentration (CC50) of 30 ± 2 nM. In addition, in the assay on MDA-MB-435 cells [1], the IC80 stood at 100 ± 2 nM. Besides, the “apoptosis (sub-G0/G1 population)” value in the assay with PC3 and DU145 cells came out at 30%. In the assay with MDA-MB-435 cells [7], the early-apoptotic cells was 34%. Moreover, the late-apoptosis/necrosis in the assay on MDA-MB-435 cells [7] turned out to be 39%. Also, the “early plus late apoptotic cells” value in the assay with DU145 cells is reported as 59%.
